From US9499502B2, “5-substituted iminothiazines and their mono- and dioxides as BACE inhibitors, compositions, and their use” (Merck Sharp & Dohme Corp., priority 2011, dated 2016)
pKi: −log10 of the molar value. Like-named read-outs stand apart in the source and are kept apart here. Each block holds one compound with its values, some of them ahead of it.

Target: soluble human BACE1 catalytic domain (Homo sapiens (Human), UniProt P56817)
Experiment: BACE1 HTRF FRET Assay
Conditions: for pKi: read-out: BACE1 Ki; for inhibition at 10 µM: read-out: BACE1 % Inh. at 10 μM, at 10 μM
[1] = Ki calculated from IC50 using the Cheng-Prusoff equation

soluble human BACE1 catalytic domain, sequence (P56817 75-416): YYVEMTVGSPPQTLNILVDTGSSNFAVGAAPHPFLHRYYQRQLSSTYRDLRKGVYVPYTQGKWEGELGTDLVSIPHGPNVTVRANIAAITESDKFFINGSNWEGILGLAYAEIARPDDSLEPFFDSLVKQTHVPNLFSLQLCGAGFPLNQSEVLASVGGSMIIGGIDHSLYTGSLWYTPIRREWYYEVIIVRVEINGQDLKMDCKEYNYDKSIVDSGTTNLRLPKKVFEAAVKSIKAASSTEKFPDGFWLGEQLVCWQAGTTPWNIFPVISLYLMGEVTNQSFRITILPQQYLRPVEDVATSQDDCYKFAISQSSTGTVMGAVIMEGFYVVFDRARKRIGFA

SMILES: CC1(C)C(=N)N[C@](C)(c2cc(NC(=O)c3ccc(Cl)cn3)cc(F)c2F)CS1(=O)=O [Example 9l]
pKi [1]: 8.37

SMILES: COc1ccc(C(=O)Nc2cc(F)c(F)c([C@]3(C)CS(=O)(=O)C(C)(C)C(=N)N3)c2)nc1 [Example 9m]
pKi [1]: 8.12

SMILES: COc1cnc(C(=O)Nc2cc(F)c(F)c([C@]3(C)CS(=O)(=O)C(C)(C)C(=N)N3)c2)c(F)c1 [Example 9o]
pKi [1]: 8.52

SMILES: CC1(C)C(=N)N[C@](C)(c2cc(NC(=O)c3cnc(C(F)F)cn3)ccc2F)CS1(=O)=O [Example 9q]
pKi [1]: 8.44

SMILES: CC1(C)C(=N)N[C@](C)(c2cc(NC(=O)c3cnc(C(F)F)cn3)cc(F)c2F)CS1(=O)=O [Example 9r]
pKi [1]: 8.28

SMILES: CC1(C)C(=N)N[C@](C)(c2cc(NC(=O)c3ccc(F)cn3)cc(Cl)c2F)CS1(=O)=O [Example 9s]
pKi [1]: 8.20

SMILES: CC1(C)C(=N)N[C@](C)(c2cc(NC(=O)c3ccc(Cl)cn3)cc(Cl)c2F)CS1(=O)=O [Example 9t]
pKi [1]: 8.48

SMILES: COc1ccc(C(=O)Nc2cc(Cl)c(F)c([C@]3(C)CS(=O)(=O)C(C)(C)C(=N)N3)c2)nc1 [Example 9u]
pKi [1]: 8.24

SMILES: COc1cnc(C(=O)Nc2cc(Cl)c(F)c([C@]3(C)CS(=O)(=O)C(C)(C)C(=N)N3)c2)cn1 [Example 9w]
pKi [1]: 8.36

SMILES: CC1(C)C(=N)N[C@](C)(c2nc(-c3cccc(C#N)c3)ccc2F)CS1(=O)=O [Example 16b]
pKi [1]: 5.30

SMILES: CC1(C)C(=N)N[C@](C)(c2nc(-c3ccc(C#N)s3)ccc2F)CS1(=O)=O [Example 16c]
pKi [1]: 5.45

SMILES: CC1(C)C(=N)N[C@](C)(c2nc(-c3cncc(C#N)c3)ccc2F)CS1(=O)=O [Example 16d]
inhibition at 10 µM: 29%

SMILES: COc1cccc2cc(-c3ccc(F)c([C@]4(C)CS(=O)(=O)C(C)(C)C(=N)N4)n3)[nH]c12 [Example 16e]
inhibition at 10 µM: 31%

SMILES: CCc1cccc(NC(=O)c2cc(Cl)c([C@]3(C)CS(=O)(=O)C(C)(C)C(=N)N3)s2)n1 [Example 19]
pKi [1]: 6.87

SMILES: CC1(C)C(=N)N[C@](C)(c2sc(C(=O)Nc3cccc(F)n3)cc2Cl)CS1(=O)=O [Example 21]
pKi [1]: 6.58

SMILES: CC1(C)C(=N)N[C@](C)(c2sc(C(=O)Nc3cccc(C(F)(F)F)n3)cc2Cl)CS1(=O)=O [Example 22]
pKi [1]: 6.76

SMILES: CC1(C)C(=N)N[C@](C)(c2sc(C(=O)NCc3ncccc3Cl)cc2Cl)CS1(=O)=O [Example 22a]
pKi [1]: 5.85

SMILES: CC1(C)C(=N)N[C@](C)(c2sc(C(=O)NCc3ncccn3)cc2Cl)CS1(=O)=O [Example 22b]
pKi [1]: 5.45

SMILES: Cc1cccc(CNC(=O)c2cc(Cl)c([C@]3(C)CS(=O)(=O)C(C)(C)C(=N)N3)s2)n1 [Example 22c]
pKi [1]: 5.10

SMILES: CC1(C)C(=N)N[C@](C)(c2sc(C(=O)NCc3ccc4cnccc4c3)cc2Cl)CS1(=O)=O [Example 22d]
pKi [1]: 5.33

SMILES: Cc1ccc(CNC(=O)c2cc(Cl)c([C@]3(C)CS(=O)(=O)C(C)(C)C(=N)N3)s2)nn1 [Example 22e]
pKi [1]: 6.12

SMILES: CC1(C)C(=N)N[C@](C)(c2sc(C(=O)NCc3ccccc3Cl)cc2Cl)CS1(=O)=O [Example 22h]
pKi [1]: 5.79

SMILES: CC1(C)C(=N)N[C@](C)(c2sc(C(=O)NCc3cccc(F)c3)cc2Cl)CS1(=O)=O [Example 22i]
pKi [1]: 5.94

SMILES: CC1(C)C(=N)N[C@](C)(c2sc(C(=O)NCc3ccc(F)cc3)cc2Cl)CS1(=O)=O [Example 22j]
pKi [1]: 6.12

SMILES: CC1(C)C(=N)N[C@](C)(c2sc(C(=O)NCc3ccc(Cl)cc3)cc2Cl)CS1(=O)=O [Example 22k]
pKi [1]: 6.06

SMILES: CC1(C)C(=N)N[C@](C)(c2sc(C(=O)NCc3cccc(Cl)c3)cc2Cl)CS1(=O)=O [Example 22l]
pKi [1]: 5.90

SMILES: CC1(C)C(=N)N[C@](C)(c2sc(C(=O)NCc3ccc(C#N)cc3)cc2Cl)CS1(=O)=O [Example 22m]
pKi [1]: 5.99

SMILES: CC1(C)C(=N)N[C@](C)(c2sc(C(=O)NCC3CCC3)cc2Cl)CS1(=O)=O [Example 22n]
pKi [1]: 6.04

SMILES: CC1(C)C(=N)N[C@](C)(c2sc(C(=O)NCc3ncc(F)cc3Cl)cc2Cl)CS1(=O)=O [Example 22o]
pKi [1]: 5.93

SMILES: CC1(C)C(=N)N[C@](C)(c2sc(C(=O)NCc3ccc(C(F)(F)F)cn3)cc2Cl)CS1(=O)=O [Example 22p]
pKi [1]: 5.74

SMILES: CC1(C)C(=N)N[C@](C)(c2sc(C(=O)NCc3cnoc3)cc2Cl)CS1(=O)=O [Example 22q]
pKi [1]: 6.45

SMILES: CC1(C)C(=N)N[C@](C)(c2sc(C(=O)NCc3cnsn3)cc2Cl)CS1(=O)=O [Example 22r]
pKi [1]: 6.73

SMILES: CC1(C)C(=N)N[C@](C)(c2sc(C(=O)NCc3cnn4ccccc34)cc2Cl)CS1(=O)=O [Example 22s]
pKi [1]: 6.89

SMILES: CC1(C)C(=N)N[C@](C)(c2sc(C(=O)NCc3ccncn3)cc2Cl)CS1(=O)=O [Example 22t]
pKi [1]: 5.50

SMILES: CC1(C)C(=N)N[C@](C)(c2sc(C(=O)NCc3ccsn3)cc2Cl)CS1(=O)=O [Example 22v]
pKi [1]: 6.53

Further lines, results first:

pKi [1]: 7.58
SMILES: CC1(C)C(=N)N[C@](C)(c2sc(-c3cc(F)cc(-c4cnco4)c3)cc2Cl)CS1(=O)=O [Example 27aa]

pKi [1]: 7.81
SMILES: CC1(C)C(=N)N[C@](C)(c2sc(-c3cc(F)cc(-c4nnco4)c3)cc2Cl)CS1(=O)=O [Example 27ab]

pKi [1]: 7.65
SMILES: CC1(C)C(=N)N[C@](C)(c2sc(-c3cncc(-c4cnco4)c3)cc2Cl)CS1(=O)=O [Example 27ac]

pKi [1]: 7.35
SMILES: CC1(C)C(=N)N[C@](C)(c2sc(-c3cncc(-c4ncco4)c3)cc2Cl)CS1(=O)=O [Example 27ad]

pKi: 7.38
SMILES: CC1(C)C(=N)N[C@](C)(c2cc(-c3cccc(-c4nnco4)c3)cs2)CS1(=O)=O [Example 27ah]

pKi: 7.13
SMILES: CC1(C)C(=N)N[C@](C)(c2cc(-c3cccc(-c4cnco4)c3)cs2)CS1(=O)=O [Example 27ai]

pKi: 6.95
SMILES: CC1(C)C(=N)N[C@](C)(c2cc(-c3cccc(-c4ccno4)c3)cs2)CS1(=O)=O [Example 27aj]

pKi: 6.89
SMILES: CC1(C)C(=N)N[C@](C)(c2cc(-c3cncc(-c4ncco4)c3)cs2)CS1(=O)=O [Example 27ak]

pKi: 7.03
SMILES: CC1(C)C(=N)N[C@](C)(c2cc(-c3cncc(-c4cnco4)c3)cs2)CS1(=O)=O [Example 27al]

pKi: 7.09
SMILES: CC1(C)C(=N)N[C@](C)(c2cc(-c3cc(F)cc(-c4cnco4)c3)cs2)CS1(=O)=O [Example 27am]

pKi: 6.99
SMILES: CC1(C)C(=N)N[C@](C)(c2sc(-c3cncc(C#N)c3)cc2F)CS1(=O)=O [Example 27ap]

pKi: 7.96
SMILES: CC1(C)C(=N)N[C@](C)(c2sc(-c3cccc(-c4nnco4)c3)cc2F)CS1(=O)=O [Example 27ar]

pKi: 6.03
SMILES: COc1cncc(-c2cc(F)c([C@]3(C)CS(=O)(=O)C(C)(C)C(=N)N3)s2)n1 [Example 27au]

pKi: 6.18
SMILES: CC1(C)C(=N)N[C@](C)(c2sc(-c3ccnc(C4CC4)c3)cc2F)CS1(=O)=O [Example 27av]

pKi: 6.90
SMILES: Cc1noc(-c2cccc(-c3cc(F)c([C@]4(C)CS(=O)(=O)C(C)(C)C(=N)N4)s3)c2)n1 [Example 27aw]

pKi: 6.07
SMILES: Cc1nnc(-c2ccc(F)c(-c3cc(F)c([C@]4(C)CS(=O)(=O)C(C)(C)C(=N)N4)s3)c2)o1 [Example 27ax]

pKi: 6.32
SMILES: Cc1nnc(-c2cccc(-c3cc(F)c([C@]4(C)CS(=O)(=O)C(C)(C)C(=N)N4)s3)c2)o1 [Example 27ay]

pKi: 7.85
SMILES: CC1(C)C(=N)N[C@](C)(c2sc(-c3cncc(-c4nnco4)c3)cc2F)CS1(=O)=O [Example 27az]

pKi [1]: 8.09
SMILES: CC1(C)C(=N)N[C@](C)(c2sc(-c3cccc(-c4nnco4)c3)cc2Cl)CS1(=O)=O [Example 27b]
